Results from US10681909B2, “Herbicidal triazoles” (FMC Corporation, priority 2014, dated 2020).

Legend:
[1] = tested on: barnyardgrass; test: Test A preemergence; format: in vivo, Echinochloa crus-galli; details: 0 to 100 scale (0 no effect, 100 complete control)
Outline: (§1)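 Pre- and postemergence spray tests in a loam soil–sand mixture: seeded soil received a directed spray, while established seedlings 2–10 cm high at the one- to two-leaf stage were treated over the top. Compounds were carried in non-phytotoxic solvent with surfactant.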

[2] = tested on: foxtail, giant; test: Test A preemergence; format: in vivo, Setaria faberii; details: 0 to 100 scale (0 no effect, 100 complete control)
Outline: as §1

[3] = tested on: pigweed; test: Test A preemergence; format: in vivo, Amaranthus retroflexus; details: 0 to 100 scale (0 no effect, 100 complete control)
Outline: as §1

[4] = tested on: wheat; test: Test A postemergence; format: in vivo, Triticum aestivum; details: 0 to 100 scale (0 no effect, 100 complete control), approx. 10 d
Outline: as §1

[5] = tested on: blackgrass; test: Test C postemergence; format: in vivo, Alopecurus myosuroides
Excerpt: (§2) Seeds of plant species selected from blackgrass (Alopecurus myosuroides), ryegrass, Italian (Italian ryegrass, Lolium multiflorum), wheat (winter wheat, Triticum aestivum), galium (catchweed bedstraw, Galium aparine), corn (Zea mays), crabgrass, large (large crabgrass, Digitaria sanguinalis), foxtail, giant, (giant foxtail, Setaria faberii), johnsongrass (Sorghum halepense), lambsquarters (Chenopodium album), morningglory (Ipomoea coccinea), nutsedge, yellow (yellow nutsedge, Cyperus esculentus), pigweed (Amaranthus retroflexus), ragweed (common ragweed, Ambrosia elatior), soybean (Glycine max), barnyardgrass (Echinochloa crus-galli), oilseed rape (Brassica napus), waterhemp (common waterhemp, Amaranthus rudis), and velvetleaf (Abutilon theophrasti) were planted into a blend of loam soil and sand and treated preemergence with test chemicals formulated in a non-phytotoxic solvent mixture which included a surfactant. At the same time, plants selected from these crop and weed species and also chickweed (common chickweed, Stellaria media), oat, wild (wild oat, Avena fatua), and kochia (Kochia scoparia), were planted in pots containing Sunshine Redi-Earth® planting medium comprising spaghnum peat moss, vermiculite, starter nutrients and dolomitic limestone and treated with postemergence applications of test chemicals formulated in the same manner. Plants ranged in height from 2 to 18 cm (1- to 4-leaf stage) for postemergence treatments. […] A dash (-) response means no test result.

[6] = tested on: crabgrass, large; test: Test C postemergence; format: in vivo, Digitaria sanguinalis
Excerpt: as §2

[7] = tested on: morningglory; test: Test C postemergence; format: in vivo, Ipomoea coccinea
Excerpt: as §2

[8] = tested on: soybean; test: Test C postemergence; format: in vivo, Glycine max
Excerpt: as §2

[9] = tested on: barnyardgrass; test: Test C postemergence; format: in vivo, Echinochloa crus-galli
Excerpt: as §2

[10] = tested on: waterhemp; test: Test C postemergence; format: in vivo, Amaranthus rudis
Excerpt: as §2

[11] = tested on: velvetleaf; test: Test C postemergence; format: in vivo, Abutilon theophrasti
Excerpt: as §2

[12] = tested on: kochia; test: Test C postemergence; format: in vivo, Kochia scoparia
Excerpt: as §2

Structure (SMILES): COc1nc(-c2ccccc2)nn1Cc1ccnc(C(F)(F)F)c1 [Compound 32]
- Plant response rating, Barnyardgrass ([1]; 125 g ai/ha): 20
- Plant response rating, Barnyardgrass ([1]; 500 g ai/ha, approx. 10 d): 80
- Plant response rating, Foxtail, Giant ([2]; 125 g ai/ha): 90
- Plant response rating, Foxtail, Giant ([2]; 500 g ai/ha, approx. 10 d): 100
- Plant response rating, Pigweed ([3]; 125 g ai/ha): 100
- Plant response rating, Pigweed ([3]; 500 g ai/ha, approx. 10 d): 100
- Plant response rating, Wheat ([4]; 125 g ai/ha): 0
- Plant response rating, Wheat ([4]; 500 g ai/ha): 20
- Plant response rating (scale of 0 to 100 where 0 is no effect and 100 is complete control) ([5]; 31 g ai/ha): 5
- Plant response rating (scale of 0 to 100 where 0 is no effect and 100 is complete control) ([5]; 62 g ai/ha): 5
- Plant response rating (scale of 0 to 100 where 0 is no effect and 100 is complete control) ([5]; 125 g ai/ha): 5
- Plant response rating (scale of 0 to 100 where 0 is no effect and 100 is complete control) ([5]; 250 g ai/ha): 15
- Plant response rating (scale of 0 to 100 where 0 is no effect and 100 is complete control) ([6]; 31 g ai/ha): 5
- Plant response rating (scale of 0 to 100 where 0 is no effect and 100 is complete control) ([6]; 62 g ai/ha): 10
- Plant response rating (scale of 0 to 100 where 0 is no effect and 100 is complete control) ([6]; 125 g ai/ha): 25
- Plant response rating (scale of 0 to 100 where 0 is no effect and 100 is complete control) ([6]; 250 g ai/ha): 25
- Plant response rating (scale of 0 to 100 where 0 is no effect and 100 is complete control) ([7]; 31 g ai/ha): 80
- Plant response rating (scale of 0 to 100 where 0 is no effect and 100 is complete control) ([7]; 62 g ai/ha): 40
- Plant response rating (scale of 0 to 100 where 0 is no effect and 100 is complete control) ([7]; 125 g ai/ha): 80
- Plant response rating (scale of 0 to 100 where 0 is no effect and 100 is complete control) ([7]; 250 g ai/ha): 65
- Plant response rating (scale of 0 to 100 where 0 is no effect and 100 is complete control) ([8]; 31 g ai/ha): 20
- Plant response rating (scale of 0 to 100 where 0 is no effect and 100 is complete control) ([8]; 62 g ai/ha): 25
- Plant response rating (scale of 0 to 100 where 0 is no effect and 100 is complete control) ([8]; 125 g ai/ha): 30
- Plant response rating (scale of 0 to 100 where 0 is no effect and 100 is complete control) ([8]; 250 g ai/ha): 35
- Plant response rating (scale of 0 to 100 where 0 is no effect and 100 is complete control) ([9]; 31 g ai/ha): 10
- Plant response rating (scale of 0 to 100 where 0 is no effect and 100 is complete control) ([9]; 62 g ai/ha): 15
- Plant response rating (scale of 0 to 100 where 0 is no effect and 100 is complete control) ([9]; 125 g ai/ha): 20
- Plant response rating (scale of 0 to 100 where 0 is no effect and 100 is complete control) ([9]; 250 g ai/ha): 20
- Plant response rating (scale of 0 to 100 where 0 is no effect and 100 is complete control) ([10]; 31 g ai/ha): 85
- Plant response rating (scale of 0 to 100 where 0 is no effect and 100 is complete control) ([10]; 62 g ai/ha): 90
- Plant response rating (scale of 0 to 100 where 0 is no effect and 100 is complete control) ([10]; 125 g ai/ha): 90
- Plant response rating (scale of 0 to 100 where 0 is no effect and 100 is complete control) ([10]; 250 g ai/ha): 98
- Plant response rating (scale of 0 to 100 where 0 is no effect and 100 is complete control) ([11]; 31 g ai/ha): 15
- Plant response rating (scale of 0 to 100 where 0 is no effect and 100 is complete control) ([11]; 62 g ai/ha): 10
- Plant response rating (scale of 0 to 100 where 0 is no effect and 100 is complete control) ([11]; 125 g ai/ha): 20
- Plant response rating (scale of 0 to 100 where 0 is no effect and 100 is complete control) ([11]; 250 g ai/ha): 20
- Plant response rating (scale of 0 to 100 where 0 is no effect and 100 is complete control) ([12]; 31 g ai/ha): 80
- Plant response rating (scale of 0 to 100 where 0 is no effect and 100 is complete control) ([12]; 62 g ai/ha): 90
- Plant response rating (scale of 0 to 100 where 0 is no effect and 100 is complete control) ([12]; 125 g ai/ha): 90
- Plant response rating (scale of 0 to 100 where 0 is no effect and 100 is complete control) ([12]; 250 g ai/ha): 90

Structure (SMILES): COc1nc(-c2ccc(C(F)(F)F)cc2)nn1Cc1ccnc(C(F)(F)F)c1 [Compound 25]
- Plant response rating, Barnyardgrass ([1]; 31 g ai/ha): 10
- Plant response rating, Barnyardgrass ([1]; 125 g ai/ha): 70
- Plant response rating, Foxtail, Giant ([2]; 31 g ai/ha): 70
- Plant response rating, Foxtail, Giant ([2]; 125 g ai/ha): 100
- Plant response rating, Pigweed ([3]; 31 g ai/ha): 90
- Plant response rating, Pigweed ([3]; 125 g ai/ha): 100
- Plant response rating, Wheat ([4]; 31 g ai/ha): 10
- Plant response rating, Wheat ([4]; 125 g ai/ha): 20
- Plant response rating (scale of 0 to 100 where 0 is no effect and 100 is complete control) ([5]; 31 g ai/ha): 5
- Plant response rating (scale of 0 to 100 where 0 is no effect and 100 is complete control) ([5]; 62 g ai/ha): 10
- Plant response rating (scale of 0 to 100 where 0 is no effect and 100 is complete control) ([5]; 125 g ai/ha): 30
- Plant response rating (scale of 0 to 100 where 0 is no effect and 100 is complete control) ([5]; 250 g ai/ha): 60
- Plant response rating (scale of 0 to 100 where 0 is no effect and 100 is complete control) ([6]; 31 g ai/ha): 15
- Plant response rating (scale of 0 to 100 where 0 is no effect and 100 is complete control) ([6]; 62 g ai/ha): 20
- Plant response rating (scale of 0 to 100 where 0 is no effect and 100 is complete control) ([6]; 125 g ai/ha): 30
- Plant response rating (scale of 0 to 100 where 0 is no effect and 100 is complete control) ([6]; 250 g ai/ha): 45
- Plant response rating (scale of 0 to 100 where 0 is no effect and 100 is complete control) ([7]; 31 g ai/ha): 90
- Plant response rating (scale of 0 to 100 where 0 is no effect and 100 is complete control) ([7]; 62 g ai/ha): 85
- Plant response rating (scale of 0 to 100 where 0 is no effect and 100 is complete control) ([7]; 125 g ai/ha): 75
- Plant response rating (scale of 0 to 100 where 0 is no effect and 100 is complete control) ([7]; 250 g ai/ha): 95
- Plant response rating (scale of 0 to 100 where 0 is no effect and 100 is complete control) ([8]; 31 g ai/ha): 45
- Plant response rating (scale of 0 to 100 where 0 is no effect and 100 is complete control) ([8]; 62 g ai/ha): 70
- Plant response rating (scale of 0 to 100 where 0 is no effect and 100 is complete control) ([8]; 125 g ai/ha): 50
- Plant response rating (scale of 0 to 100 where 0 is no effect and 100 is complete control) ([8]; 250 g ai/ha): 65
- Plant response rating (scale of 0 to 100 where 0 is no effect and 100 is complete control) ([9]; 31 g ai/ha): 20
- Plant response rating (scale of 0 to 100 where 0 is no effect and 100 is complete control) ([9]; 62 g ai/ha): 25
- Plant response rating (scale of 0 to 100 where 0 is no effect and 100 is complete control) ([9]; 125 g ai/ha): 35
- Plant response rating (scale of 0 to 100 where 0 is no effect and 100 is complete control) ([9]; 250 g ai/ha): 35
- Plant response rating (scale of 0 to 100 where 0 is no effect and 100 is complete control) ([10]; 31 g ai/ha): 95
- Plant response rating (scale of 0 to 100 where 0 is no effect and 100 is complete control) ([10]; 62 g ai/ha): 95
- Plant response rating (scale of 0 to 100 where 0 is no effect and 100 is complete control) ([10]; 125 g ai/ha): 98
- Plant response rating (scale of 0 to 100 where 0 is no effect and 100 is complete control) ([10]; 250 g ai/ha): 95
- Plant response rating (scale of 0 to 100 where 0 is no effect and 100 is complete control) ([11]; 31 g ai/ha): 35
- Plant response rating (scale of 0 to 100 where 0 is no effect and 100 is complete control) ([11]; 62 g ai/ha): 50
- Plant response rating (scale of 0 to 100 where 0 is no effect and 100 is complete control) ([11]; 125 g ai/ha): 70
- Plant response rating (scale of 0 to 100 where 0 is no effect and 100 is complete control) ([11]; 250 g ai/ha): 75
- Plant response rating (scale of 0 to 100 where 0 is no effect and 100 is complete control) ([12]; 31 g ai/ha): 90
- Plant response rating (scale of 0 to 100 where 0 is no effect and 100 is complete control) ([12]; 62 g ai/ha): 90
- Plant response rating (scale of 0 to 100 where 0 is no effect and 100 is complete control) ([12]; 125 g ai/ha): 90
- Plant response rating (scale of 0 to 100 where 0 is no effect and 100 is complete control) ([12]; 250 g ai/ha): 95
